Article PMC7355497 (Pharmaceutics, 2020)
Structures can show the parent of a compound that is named as a salt.

Legend:
[1] = target: P-gp (Homo sapiens, UniProt P08183); settings: 15 min, 10 μM
[2] = cited from earlier work

Sequence of P-gp (P08183 whole entry): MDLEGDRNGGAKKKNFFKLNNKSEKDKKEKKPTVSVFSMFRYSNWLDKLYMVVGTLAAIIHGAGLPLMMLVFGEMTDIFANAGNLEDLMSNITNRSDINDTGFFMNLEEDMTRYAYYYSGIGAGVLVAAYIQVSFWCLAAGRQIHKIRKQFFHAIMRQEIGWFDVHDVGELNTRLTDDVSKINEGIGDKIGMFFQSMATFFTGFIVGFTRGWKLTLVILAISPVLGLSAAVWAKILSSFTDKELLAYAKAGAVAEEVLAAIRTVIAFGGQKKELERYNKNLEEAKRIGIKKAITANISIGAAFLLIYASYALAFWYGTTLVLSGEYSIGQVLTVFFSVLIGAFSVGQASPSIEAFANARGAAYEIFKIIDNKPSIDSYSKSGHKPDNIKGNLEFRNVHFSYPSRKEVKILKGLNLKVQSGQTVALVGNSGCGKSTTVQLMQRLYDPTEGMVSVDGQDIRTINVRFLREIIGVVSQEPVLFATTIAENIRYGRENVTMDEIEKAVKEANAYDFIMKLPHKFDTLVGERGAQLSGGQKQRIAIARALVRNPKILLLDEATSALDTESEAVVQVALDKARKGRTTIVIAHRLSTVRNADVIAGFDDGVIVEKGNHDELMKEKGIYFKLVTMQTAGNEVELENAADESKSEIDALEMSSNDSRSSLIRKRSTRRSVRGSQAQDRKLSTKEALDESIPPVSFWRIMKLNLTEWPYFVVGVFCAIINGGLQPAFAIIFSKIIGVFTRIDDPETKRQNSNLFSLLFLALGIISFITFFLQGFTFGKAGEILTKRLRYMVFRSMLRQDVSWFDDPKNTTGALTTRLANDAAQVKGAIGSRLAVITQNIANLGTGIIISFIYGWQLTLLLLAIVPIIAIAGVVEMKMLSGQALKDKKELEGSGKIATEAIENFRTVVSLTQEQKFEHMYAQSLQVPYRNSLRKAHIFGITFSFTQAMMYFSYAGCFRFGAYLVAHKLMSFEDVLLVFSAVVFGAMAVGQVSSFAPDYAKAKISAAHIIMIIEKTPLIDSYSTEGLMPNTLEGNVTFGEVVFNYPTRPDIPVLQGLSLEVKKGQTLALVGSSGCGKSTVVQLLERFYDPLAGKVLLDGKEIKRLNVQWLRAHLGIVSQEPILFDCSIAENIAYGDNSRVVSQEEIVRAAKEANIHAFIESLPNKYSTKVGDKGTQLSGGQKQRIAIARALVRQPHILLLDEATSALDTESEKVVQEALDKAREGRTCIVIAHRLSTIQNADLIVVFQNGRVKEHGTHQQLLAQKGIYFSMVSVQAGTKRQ

Row | Fluorescence intensity as percentage of control group (P-gp inhibition) [1] | Compound | Fraction of dose excreted into feces as the unchanged form [2] [%] | Fraction of dose excreted into urine as the unchanged form [2] [%]
1 | 147.2% ± 12.4 | Cc1cc(O)c2c(c1)C(=O)c1cc(O)cc(O)c1C2=O [emodin] | – | –
2 | – | CC(C)(C(=O)O)c1ccc(C(O)CCCN2CCC(C(O)(c3ccccc3)c3ccccc3)CC2)cc1 (stereo not drawn) [fexofenadine, Fexofenadine hydrochloride] | 80 | 11
